Experimental data as given in US6180653A, “Aminopyrazole derivatives” (Banyu Pharmaceutical Co., Ltd., priority 1996, dated 2001).

Molecular target: T1, human NPY Y5 receptor (Homo sapiens, UniProt Q15761)
T1 construct: expressed in transfected cells
T1 sequence (Q15761 1-445): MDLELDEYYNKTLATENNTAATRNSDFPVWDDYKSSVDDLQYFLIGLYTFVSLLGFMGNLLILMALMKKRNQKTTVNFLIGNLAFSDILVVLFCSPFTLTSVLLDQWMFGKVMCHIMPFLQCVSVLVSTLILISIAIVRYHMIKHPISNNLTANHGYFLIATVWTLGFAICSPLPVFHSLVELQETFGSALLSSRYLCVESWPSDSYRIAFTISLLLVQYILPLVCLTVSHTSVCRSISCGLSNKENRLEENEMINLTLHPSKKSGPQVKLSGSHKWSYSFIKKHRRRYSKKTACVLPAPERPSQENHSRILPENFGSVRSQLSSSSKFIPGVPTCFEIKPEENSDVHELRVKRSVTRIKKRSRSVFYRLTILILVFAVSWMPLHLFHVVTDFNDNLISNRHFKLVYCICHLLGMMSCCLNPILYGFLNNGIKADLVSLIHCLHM
Experiment: test of inhibition of NPY binding ([125I] peptide YY binding to membranes of NPY Y5 receptor-expressing cells)
Details: [125I] peptide YY 20,000 cpm, 25° C., 2 hours, pH 7.4; membranes of transfected COS-7, CHO or LM(tk-) cells; read-out: concentration needed to inhibit 50% of the specific binding to the peptide YY (IC50 value)
Source text: cDNA Sequence encoding a human NPY Y5 receptor [International Publication WO 96/16542] was cloned into expression vectors pcDNA3, pRc/RSV (manufactured by Invitrogen) and pCI-neo (manufactured by Promega). Using the cationic lipid method [see Proceedings of the National Academy of Science of the United States of America, vol.84, p.7413 (1987)], host cells COS-7, CHO and LM(tk-) (American Type Culture Collection) were transfected with the thus prepared expression vectors to obtain cells in which the NPY Y5 receptor had been expressed.
Each of the membrane preparations thus prepared from the cells in which the NPY Y5 receptor had been expressed was incubated together with each compound to be tested and 20,000 cpm of [^125 I,] peptide YY (manufactured by Amersham) at 25° C. for 2 hours in an assay buffer solution (25 mM HEPES buffer, pH 7.4, containing 10 mM magnesium chloride, 1 mM phenylmethylsulfonyl fluoride and 0.1% bacitracin) and then, the reaction mixture was filtered through a glass filter GF/C. After washing with 50 mM Tris buffer, pH 7.4, containing 0.3% BSA, radioactivity on the glass filter was measured using a gamma counter. […]

Compound: COc1ccc(-c2cc(NC(=O)Cc3ccc4ccccc4c3)[nH]n2)cc1OC [Example 6]
- IC50: 8.3 nM
